Source: US20240352415A1, “METHODS FOR THE GENERATION OF HUMAN RETINAL GANGLION CELLS AND COMPOSITIONS, ASSAYS, DEVICES, AND KITS COMPRISING SAME” (priority 2021, published 2024)
Entries after “also recorded” stand apart in the source; their conditions may differ.

How the values were obtained:
[1] = tested on: CONCEPT telencephalon-eye organoids; assay: Inhibition of FGF signaling in CONCEPT telencephalon-eye organoids with FGFR and MEK inhibitors (immunostaining readout); assay type: cell-based, human; conditions: inhibitor in culture medium starting on day 15, harvested day 24; PD 161570 1 μM, PD 0325901 2 μM; DMSO control
Experimental: CONCEPT telencephalon-eye organoids were generated as follows. A humidified incubator at 37° C. with 5% C02 was used for cell culture. H1 hESCs or iPSCs that were passaged using ReLeSR two or three days before experiments were detached using Dispase (GIBCO 17105041) and then harvested by centrifugation. After that, the cell pellets were suspended in ice-cold Matrigel. After gelling at 37° C. for 15-20 minutes, the hESC/Matrigel clump was gently dispersed in a N2B27 Medium (DMEM/F12+GlutaMAX (GIBCO):Neurobasal medium (GIBCO)=1:1, 0.5×B27 supplement (GIBCO), 0.5×N2 supplement (GIBCO), 0.1 mM β-mercaptoethanol, and 0.2 mM L-GlutaMax) for floating culture. With the starting day of cell differentiation designated as day 0, cysts with a single lumen formed on day 1. On days 3-5, individual cysts were manually picked using a curved Pasteur pipets under an inverted microscope and then seeded onto Matrigel-coated 24-well plates at a density of 2-6 cysts per well. Cysts spontaneously attached to the culture surface and grew. […] Culture mediums were changed every two or three days. To inactivate FGF signaling in CONCEPT organoids, FGFR1/2/3 inhibitor PD 161570 (1 μM; Tocris) and MEK1/2 inhibitor PD 0325901 (2 μM; Tocris) were supplemented to the culture medium staring on day 15. DMSO was used as a control. Treated CONCEPT organoids were harvested on day 24. CONCEPT telencephalon-eye organoids were fixed in 4% PFA for 15-30 minutes at room temperature and processed for immunostaining. These primary antibodies were used: […] Primary antibodies were visualized using Alexa Fluor 488-, 568-, and 647-conjugated secondary antibodies and imaged using a Zeiss AxioObserver Z1 microscope. […] In dual-color immunohistochemistry for PAX2 and FGF8, FGF8 was visualized using AP-conjugated anti mouse secondary antibody (Invitrogen A16038), and PAX2 was detected by biotin-conjugated anti rabbit secondary antibody (Invitrogen B2770) followed by […]-conjugated streptavidin (ThermoScientific 21130).

[2] = tested on: voltage-gated potassium channels
[3] = tested on: voltage-gated sodium channels; assay type: cell-based, human

SMILES | RGC somas and directional axon growth marked by CNTN2 expression [1] | optic disc cells marked by moderate-level PAX2 expression at the outer regions [1] | optic stalk cells marked by high-level PAX2 expression at the inner zone [1] | retinal (neuroretinal) progenitors marked by VSX2 expression [1] | effect on amplitude of outward currents [2] | mean IK±SD at 60 mV (outward potassium current amplitude) [2] [pA] | effect on inward currents [3] | mean INa+SD at −10 mV (inward sodium current amplitude) [3] [pA]
CCN(CC)CCCCNc1ncc2cc(-c3c(Cl)cccc3Cl)c(NC(=O)NC(C)(C)C)nc2n1 [PD 161570] | drastically reduced or nearly absent | severely reduced | reduced | reduced |  |  |  | 
O=C(NOC[C@H](O)CO)c1ccc(F)c(F)c1Nc1ccc(I)cc1F [PD 0325901] | substantially reduced or nearly absent; also recorded: drastically reduced | nearly absent | largely remained | largely remained |  |  |  | 
CC[N+](CC)(CC)CC.[Cl-] [TEA, Tetraethylammonium-chloride] |  |  |  |  | significantly reduced | 279±201 |  | 
NC1=N[C@H](O)[C@H]2[C@H]3O[C@]4(O)O[C@@H]([C@@H](O)[C@@]2(N1)[C@@H]4O)[C@]3(O)CO [TTX, Tetrodotoxin-citrate] |  |  |  |  |  |  | abolished all inward currents | −18.3±13
